Reference: the NIST ThermoML archive (doi:10.1016/j.jct.2017.03.006)

Test: xn = mol fraction of the nth substance listed
Conditions: 333.15 K, Liquid, Vibrating tube method

Cc1ccc(C)c(C)c1 [1,2,4-trimethylbenzene] + CCC(C)O
mass density [kg/m3]
Conditions | x2 = 0 | x2 = 0.1 | x2 = 0.1989 | x2 = 0.3011 | x2 = 0.4002 | x2 = 0.5001 | x2 = 0.5997 | x2 = 0.6999 | x2 = 0.7999 | x2 = 0.9
40000 kPa | – | – | – | – | – | – | – | – | 819.7 | 812.1
50000 kPa | 877.4 | 871.2 | 865.3 | 859.2 | 853.2 | 847.6 | 840.5 | 833.4 | 826.3 | 818.7
60000 kPa | 883 | 876.9 | 871.1 | 865.1 | 859.1 | 853.7 | 846.6 | 839.5 | 832.5 | 824.9
70000 kPa | 888.2 | 882.5 | 876.6 | 870.6 | 864.8 | 859.3 | 852.3 | 845.3 | 838.4 | 830.7
80000 kPa | 893.2 | 887.6 | 881.9 | 875.9 | 870.1 | 864.7 | 857.8 | 850.8 | 843.7 | 836.2
90000 kPa | 898 | 892.5 | 886.9 | 881 | 875.2 | 869.8 | 862.9 | 856 | 849 | 841.4
100000 kPa | 902.5 | 897.2 | 891.7 | 885.8 | 880 | 874.7 | 867.9 | 860.9 | 853.9 | 846.4
110000 kPa | 906.9 | 901.8 | 896.2 | 890.5 | 884.7 | 879.4 | 872.6 | 865.7 | 858.7 | 851.2
120000 kPa | 911.1 | 906.1 | 900.7 | 894.8 | 889.1 | 883.9 | 877.1 | 870.2 | 863.2 | 855.7
130000 kPa | 915.1 | 910.3 | 904.9 | 899.1 | 893.4 | 888.2 | 881.5 | 874.5 | 867.5 | 860.1
140000 kPa | 919 | 914.3 | 909.1 | 903 | 897.5 | 892.2 | 885.9 | 878.5 | 871.5 | 864
